From US4732970A, “Antitumor amino acid and peptide derivatives of 1,4-bis(aminoalkyl and hydroxy-aminoalkyl)amino)-5,8-dihydroxyanthraquinones” (priority 1986, dated 1988) come the findings set out here.

In experiment [1] the test system is melanotic melanoma B16 tumor. The experiment in a line: Melanotic Melanoma B16 test. The format is in vivo, BDF1 mice. The conditions noted are these: for Median Survival: BDF1 mice; for T/C × 100 (%): ratio of survival time treated/control. As for the experimental part: The animals used were BDFl mice, all of the same sex, weighing a minimum of 17 g and all within a 3 g weight range. There were 12 animals per test group. A 1 g portion of melanotic melanoma B16 tumor was homogenized in 10 ml of cold balanced salt solution and a 0.5 ml aliquot of the homogenate was implanted intraperitoneally into each of the test mice. The test compounds were administered intraperitoneally on days 1, 5 and 9 (relative to tumor inoculation) at various doses. The animals were weighed and survivors recorded on a regular basis for 60 days. The median survival time and ratio of survival time for treated (T)/control (C) animals were calculated. The positive control compound was 1,4-bis[(2-aminoethyl)amino]-5,8-dihydroxyanthraquinone, dihydrochloride (U.S. patent application Ser. No. 87,354, filed Oct. 23, 1979).

Experiment [2] concerns lymphocytic leukemia P388. The experiment in a line: Lymphocytic Leukemia P388 Test. The conditions noted are these: for Median Survival: BDF1 mice. The format is in vivo, BDF1 mice. The method in brief:
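BDF1 mice (5–6 per group) were inoculated i.p. with 10^6 P388 cells, then dosed i.p. on days 1, 5 and 9 at various doses. Survival was followed for 60 days, and median survival time and the treated/control (T/C) survival ratio were calculated.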

Where [3] appears, read: dose 0.75 mg/kg intraperitoneally on days 1, 5 and 9.
The mark [4] stands for this setting: dose 1.5 mg/kg intraperitoneally on days 1, 5 and 9.
Setting [5] is: dose 3 mg/kg intraperitoneally on days 1, 5 and 9.

As to `Cl.Cl.NCC(=O)NCCNc1ccc(NCCNC(=O)CN)c2c1C(=O)c1c(O)ccc(O)c1C2=O` [Example 19, N,N'-[(9,10-Dihydro-5,8-dihydroxy-9,10-dioxo-1,4-anthracenediyl)bis(imino-2,1-ethanediyl)]bis[2-amino-acetamide], dihydrochloride], the “Median Survival” value in experiment [1] (setting [3]) was 27.5 days; in experiment [1] (setting [4]) it was 28.0 days; in experiment [1] (setting [5]) it was 37.0 days; in experiment [2] (setting [3]), 22.0 days; in experiment [2] (setting [4]), 24.0 days; in experiment [2] (setting [5]) it was 34.5 days. Further, the “T/C × 100 (%)” value in experiment [1] (setting [3]) was found to be 162%; in experiment [1] (setting [4]), 165%; in experiment [1] (setting [5]), 218%. Also, in experiment [2] (Mus musculus, P388, ip, dose 0.75 mg/kg intraperitoneally on days 1, 5 and 9, ratio of survival time treated/control, read-out: T/C × 100 (%)), the response vs control in vivo at 0.75 mg/kg was determined as 183%. For the same compound, the response vs control in vivo at 1.5 mg/kg in experiment [2] (Mus musculus, P388, ip, dose 1.5 mg/kg intraperitoneally on days 1, 5 and 9, ratio of survival time treated/control, read-out: T/C × 100 (%)) is 200%. Besides, the response vs control in vivo at 3 mg/kg in experiment [2] (Mus musculus, P388, ip, dose 3 mg/kg intraperitoneally on days 1, 5 and 9, ratio of survival time treated/control, read-out: T/C × 100 (%)) was determined as 288%.
